PubChem BioAssay AID330 (DTP/NCI, 2004)
Where “and” joins values, the source holds several entries; their conditions need not be identical. Equal values may be shown once. Toxic doses and inconclusive results are not listed. How the source made its calls: active means survival T/C of 150% or more; inactive means T/C below 125% in these data.

Test system: P388 leukemia ip, CD2F1 mice, survival T/C
Assay: NCI In Vivo Anticancer Drug Screen. Data for tumor model P388 Leukemia (intraperitoneal) in CD2F1 (CDF1) mice
Conditions: endpoint: median survival time, higher = longer survival
Procedure, shortened: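 Mice carrying the transplanted tumor received test compound or vehicle. Survival was recorded in each group, and the value is the treated-group measurement divided by that of the vehicle-treated control group.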

[1] = dose: 60.0 mg/kg/injection, schedule: Q01DX005 (ip), vehicle: saline with Tween-80
[2] = dose: 120.0 mg/kg/injection, schedule: Q01DX005 (ip), vehicle: saline with Tween-80
[3] = dose: 240.0 mg/kg/injection, schedule: Q01DX005 (ip), vehicle: saline with Tween-80
[4] = dose: 12.5 mg/kg/injection, schedule: Q01DX009 (ip), vehicle: Klucel (hydroxypropylcellulose) (HPC)
[5] = dose: 50.0 mg/kg/injection, schedule: Q01DX009 (ip), vehicle: Klucel (hydroxypropylcellulose) (HPC)
[6] = dose: 100.0 mg/kg/injection, schedule: Q01DX009 (ip), vehicle: Klucel (hydroxypropylcellulose) (HPC)
[7] = dose: 12.5 mg/kg/injection, schedule: Q01DX009 (ip), vehicle: saline
[8] = dose: 25.0 mg/kg/injection, schedule: Q01DX009 (ip), vehicle: saline
[9] = dose: 50.0 mg/kg/injection, schedule: Q01DX009 (ip), vehicle: saline
[10] = dose: 50.0 mg/kg/injection, schedule: Q01DX005 (ip), vehicle: saline with Tween-80
[11] = dose: 100.0 mg/kg/injection, schedule: Q01DX005 (ip), vehicle: saline with Tween-80
[12] = dose: 100.0 mg/kg/injection, schedule: Q01DX009 (ip), vehicle: saline
[13] = dose: 200.0 mg/kg/injection, schedule: Q01DX009 (ip), vehicle: saline
[14] = dose: 200.0 mg/kg/injection, schedule: Q01DX005 (ip), vehicle: saline with Tween-80
[15] = dose: 25.0 mg/kg/injection, schedule: Q01DX009 (ip), vehicle: Klucel (hydroxypropylcellulose) (HPC)
[16] = dose: 12.5 mg/kg/injection, schedule: Q04DX003 (ip), vehicle: saline
[17] = dose: 25.0 mg/kg/injection, schedule: Q04DX003 (ip), vehicle: saline

Measured: T/C

NC(=O)CC1=Cc2c(ccc3ccc(O)cc23)C1
inactive: dose: 12.5 mg/kg/injection, schedule: Q01DX009 (ip), vehicle: distilled water + Tween-80 97 % of control | dose: 25.0 mg/kg/injection, schedule: Q01DX009 (ip), vehicle: distilled water + Tween-80 91 % of control | dose: 50.0 mg/kg/injection, schedule: Q01DX009 (ip), vehicle: distilled water + Tween-80 102 % of control | dose: 100.0 mg/kg/injection, schedule: Q01DX009 (ip), vehicle: distilled water + Tween-80 93 % of control | dose: 200.0 mg/kg/injection, schedule: Q01DX009 (ip), vehicle: distilled water + Tween-80 90 % of control

C(=C\c1cccs1)/c1csnn1
inactive: [1] 101 % of control | [2] 102 % of control | [3] 101 % of control

CCSCC1C(=O)C23CC1CCC2C12COC(O)C1C(C)(C)C(O)CC2OC3=O (stereo unspecified)
inactive: dose: 3.12 mg/kg/injection, schedule: Q01DX009 (ip), vehicle: Klucel (hydroxypropylcellulose) (HPC) 103 % of control | dose: 6.25 mg/kg/injection, schedule: Q01DX009 (ip), vehicle: Klucel (hydroxypropylcellulose) (HPC) 107 % of control | [4] 103 % of control | [5] 109 % of control | [6] 107 % of control

CC[N+]1(C)CCCCC1
inactive: dose: 6.25 mg/kg/injection, schedule: Q01DX009 (ip), vehicle: saline 107 % of control | [7] 103 % of control | [8] 97 % of control | [9] 97 % of control

O=C1CCC(N2C(=O)C3C4CCC(O4)C3C2=O)C(=O)N1 (stereo unspecified)
inactive: [1] 101 % of control | [2] 94 % of control | [3] 100 % of control

O=C1N=NC2=C1c1c3ccccc3c(O)n1CC2
inactive: dose: 25.0 mg/kg/injection, schedule: Q01DX005 (ip), vehicle: saline with Tween-80 99 % of control | [10] 101 % of control | [11] 95 % of control

COc1ccc(C2CC(=O)C(C)C(c3ccc(OC)cc3)N2)cc1 (stereo unspecified)
inactive: [9] 100 % of control | [12] 104 % of control | [13] 100 % of control

COc1ccc(S(=O)(=O)N/N=C/c2cc(I)cc([N+](=O)[O-])c2O)cc1
inactive: [10] 102 % of control | [11] 100 % of control | [14] 104 % of control

Nc1nc2ccc(CNc3ccc(C(=O)NC(CC(=O)O)C(=O)O)cc3)cc2c(=O)[nH]1 (stereo unspecified)
inactive: [4] 100 % of control | [15] 96 % of control | [5] 99 % of control and 103 % of control | [6] 116 % of control

O=C(O)C12C3C4C5C3C3(OCCO3)C1(Br)C5C42 (stereo unspecified)
inactive: [1] 100 % of control | [2] 102 % of control | [3] 107 % of control

O=c1cc[nH]c2c1ccc1[nH]ccc(=O)c12
inactive: dose: 60.0 mg/kg/injection, schedule: Q01DX005 (ip), vehicle: Klucel (hydroxypropylcellulose) (HPC) 108 % of control | dose: 120.0 mg/kg/injection, schedule: Q01DX005 (ip), vehicle: Klucel (hydroxypropylcellulose) (HPC) 99 % of control | dose: 240.0 mg/kg/injection, schedule: Q01DX005 (ip), vehicle: Klucel (hydroxypropylcellulose) (HPC) 99 % of control

CC1(C)CCO/C(=C\C(=O)N2Cc3cc4ccccc4nc3C2)N1
inactive: dose: 18.75 mg/kg/injection, schedule: Q01DX001 (ip), vehicle: saline sonified 95 % of control | dose: 37.5 mg/kg/injection, schedule: Q01DX001 (ip), vehicle: saline sonified 95 % of control | dose: 75.0 mg/kg/injection, schedule: Q01DX001 (ip), vehicle: saline sonified 100 % of control

O=C(O)CN1C(=O)c2cccc3cccc(c23)C1=O
inactive: dose: 50.0 mg/kg/injection, schedule: Q01DX009 (ip), vehicle: suspension in saline 101 % of control | dose: 100.0 mg/kg/injection, schedule: Q01DX009 (ip), vehicle: suspension in saline 102 % of control | dose: 200.0 mg/kg/injection, schedule: Q01DX009 (ip), vehicle: suspension in saline 100 % of control

c1nc(N2CCCCC2)c2c3c(sc2n1)CCCC3
inactive: [10] 100 % of control | [11] 91 % of control | [14] 96 % of control

CCC[CH2][GeH][CH2]CCC.CCC[CH2][Ge]([CH2]CCC)[CH2]CCC
inactive: [9] 98 % of control | [12] 88 % of control | [13] 98 % of control

C=CC1(C)CCC2C(=CCC3C2(C)CC(O)C(O)C3(C)COC2OC(C(=O)O)C(O)C(O)C2O)C1 (stereo unspecified) (tested in a mixture with another compound)
inactive: [4] 103 % of control | [15] 100 % of control | [5] 106 % of control | [6] 100 % of control

Nc1ccc(C(=O)CCCN2CCCCC2)cc1
inactive: [7] 104 % of control | [16] 91 % of control | [8] 95 % of control | [17] 95 % of control | [9] 90 % of control | dose: 50.0 mg/kg/injection, schedule: Q04DX003 (ip), vehicle: saline 91 % of control

CCCC1CN2CCc3cc(OC)c(OC)cc3C2C/C1=C/C(=O)OCC (stereo unspecified)
inactive: [7] 90 % of control | [8] 92 % of control | dose: 50.0 mg/kg/injection, schedule: Q01DX009 (ip), vehicle: saline with Tween-80 90 % of control | [9] 96 % of control | dose: 200.0 mg/kg/injection, schedule: Q01DX009 (ip), vehicle: saline with Tween-80 89 % of control

OC(c1cc2ccc(C(F)(F)F)cc2c2cc(C(F)(F)F)ccc12)C1CCCCN1 (stereo unspecified)
inactive: dose: 12.5 mg/kg/injection, schedule: Q01DX009 (ip), vehicle: saline with Tween-80 102 % of control and 107 % of control | dose: 25.0 mg/kg/injection, schedule: Q01DX009 (ip), vehicle: saline with Tween-80 100 % of control and 102 % of control

CC(=O)C1(O)Cc2c(O)c3c(c(O)c2C(OC2CC(N)C(O)C(C)O2)C1C)C(=O)c1ccccc1C3=O (stereo unspecified)
inactive: dose: 0.6 mg/kg/injection, schedule: Q04DX003 (ip), vehicle: water 100 % of control | dose: 1.2 mg/kg/injection, schedule: Q04DX003 (ip), vehicle: water 108 % of control | dose: 2.4 mg/kg/injection, schedule: Q04DX003 (ip), vehicle: water 108 % of control | dose: 4.8 mg/kg/injection, schedule: Q04DX003 (ip), vehicle: water 106 % of control | dose: 9.6 mg/kg/injection, schedule: Q04DX003 (ip), vehicle: water 118 % of control

CC(C)(Cc1ccccc1)C(=C=C=C=C(c1ccccc1)C(C)(C)Cc1ccccc1)c1ccccc1
inactive: [15] 101 % of control | [5] 99 % of control | [6] 92 % of control

Oc1cc2c(cc1C(Nc1ccccn1)c1ccc3c(c1)OCO3)OCO2 (stereo unspecified)
inactive: [1] 108 % of control | [2] 108 % of control | [3] 95 % of control

C=C1SC(=Nc2ccc(Cl)cc2)N(c2nc(Cl)nc(Cl)n2)C12CCCCC2
inactive: [9] 98 % of control | [12] 90 % of control | [13] 89 % of control

CCNCC(O)c1cccc(C(F)(F)F)c1 (stereo unspecified)
inactive: [9] 102 % of control | [12] 109 % of control

CN(C)c1ccc(/C=C/c2c(F)cnc3ccccc23)cc1
inactive: [4] 114 % of control | [15] 101 % of control | [5] 104 % of control

COc1ccc(-c2n[nH]c(-c3ccc(OC)cc3)c2N=Nc2ccc(S(=O)(=O)Nc3nnc(C)s3)cc2)cc1
inactive: dose: 100.0 mg/kg/injection, schedule: Q04DX002 (ip), vehicle: saline with Tween-80 103 % of control | dose: 200.0 mg/kg/injection, schedule: Q04DX002 (ip), vehicle: saline with Tween-80 103 % of control | dose: 400.0 mg/kg/injection, schedule: Q04DX002 (ip), vehicle: saline with Tween-80 94 % of control

FC(F)(F)c1ccc2c(c1)N(CCCN1CCN(CCCl)CC1)c1ccccc1S2
inactive: dose: 6.25 mg/kg/injection, schedule: Q04DX003 (ip), vehicle: saline 96 % of control | [16] 101 % of control | [17] 115 % of control

CC(C)=CCCC(=O)C(c1nc2nnc(N)n2[nH]c1=O)c1nc2nnc(N)n2[nH]c1=O
inactive: dose: 60.0 mg/kg/injection, schedule: Q01DX005 (ip), vehicle: saline 104 % of control | dose: 120.0 mg/kg/injection, schedule: Q01DX005 (ip), vehicle: saline 104 % of control | dose: 240.0 mg/kg/injection, schedule: Q01DX005 (ip), vehicle: saline 95 % of control
